The text below walks through data of PMC11396318, “Lupeol-3-carbamate Derivatives: Synthesis and Biological Evaluation as Potential Antitumor Agents” (Molecules, 2024).

The test system of test [1] is human breast cancer cell line MCF-7. Nature of the test: MTT anti-proliferative assay, MCF-7. The test is classed as cell-based. To be noted: read-out: IC50 (μM) MCF-7. From the text:
(§1) The anti-proliferative activities of 3a–k against human lung cancer cell line (A549), human hepatoma cell line (HepG2), and human breast cancer cell line (MCF-7) were examined. With lupeol and cisplatin as positive controls, the MTT assay was used to evaluate the anti-proliferative activity of all of the synthesized compounds in vitro.
(§2) The MTT (Beyotime, Shanghai, China) colorimetric method was used to test the antitumor activity of the synthetic products. The test compound and the control compound were prepared into the liquid with a concentration of 1, 5, 10, 20, and 40 μmol/L, respectively. The tested tumor cells (A549, HepG2, MCF-7) (Chinese Academy of Sciences, Shanghai, China) were inoculated into 96 well plates with a density of 2 × 10^4 cells/mL, and 90 μL PBS was injected into each well. The 96 well plates were cultured overnight in an incubator, and each well was injected with the same concentration of 10 μL of the test compound. After 48 h, 10 μL of MTT solution was injected into each well. After culture for 4 h, the plates were turned upside down and 100 μL DMSO (Kermel, Tianjin, China) was added. The optical density (OD) values of the compound and the control product were determined at 490 nm wavelength with enzyme-labeled apparatus.

Test [2] has as its system human liver cancer cell line HepG2. Nature of the test: MTT anti-proliferative assay, HepG2. The class given is cell-based. To be noted: read-out: IC50 (μM) HepG2.
From the text: as §1, §2

The subject of test [3] is human lung cancer cell line A549. Put plainly: MTT anti-proliferative assay, A549. The class given is cell-based. To be noted: read-out: IC50 (μM) A549.
From the text: as §1, §2

In a further test the test system is A549, HepG2, MCF-7. Nature of the test: MTT anti-proliferative assay, stated for all three tumor cell lines together. The test is classed as cell-based, human. The note with it: for anti-proliferative activity compared with lupeol: three tested cell lines; for IC50: Homo sapiens, 48 h, A549, HepG2 and MCF-7, 48 h, span or bound over the three lines, read-out: IC50 against all three tumor cell lines.
From the text: as §1, §2

The mark [4] stands for this setting: MTT assay, 48 h of treatment, three independent experiments.
Where [5] appears, read: Homo sapiens, MCF7, MTT assay, 48 h of treatment, three independent experiments.
[6] abbreviates: Homo sapiens, HepG2, MTT assay, 48 h of treatment, three independent experiments.
Setting [7] is: Homo sapiens, A549, MTT assay, 48 h of treatment, three independent experiments.

Like-named read-outs stand apart in the source and are kept apart here.

With `N.N.[Cl][Pt][Cl]` [Cisplatin, reference compound], the IC50 in test [1] (setting [4]) is 5.27 ± 0.68 µM; in test [2] (setting [4]) it was 4.05 ± 0.45 µM; in test [3] (setting [4]), 4.65 ± 0.52 µM.

For `C=C(C)[C@@H]1CC[C@]2(C)CC[C@]3(C)C(CCC4[C@@]5(C)CC[C@H](OC(=O)N(C)C)C(C)(C)C5CC[C@]43C)C12` (stereo partly drawn) [Compound 3a, Lupeol-3-(dimethyl) Carbamate], the IC50 in test [1] (Homo sapiens, MCF7, 48 h) was found to be 10.2 ± 1.24 µM; in test [2] (Homo sapiens, HepG2, 48 h), 11.1 ± 1.45 µM; in test [3] (Homo sapiens, A549, 48 h) it was 14 ± 1.03 µM.

On to `C=C(C)[C@@H]1CC[C@]2(C)CC[C@]3(C)C(CCC4[C@@]5(C)CC[C@H](OC(=O)N(CC)CC)C(C)(C)C5CC[C@]43C)C12` (stereo partly drawn) [Compound 3b, Lupeol-3-(diethyl) Carbamate], for which the 50% inhibitory concentration (IC50) in test [1] (Homo sapiens, MCF7, 48 h) amounted to 12.7 ± 1.43 µM; in test [2] (Homo sapiens, HepG2, 48 h), 13.8 ± 1.23 µM; in test [3] (Homo sapiens, A549, 48 h) it was 14 ± 1.25 µM.

Regarding `C=C(C)[C@@H]1CC[C@]2(C)CC[C@]3(C)C(CCC4[C@@]5(C)CC[C@H](OC(=O)N(CCC)CCC)C(C)(C)C5CC[C@]43C)C12` (stereo partly drawn) [Compound 3c, Lupeol-3-(dipropyl) Carbamate], the results for the concentration for half-maximal inhibition (IC50) in test [1] (setting [5]), in test [2] (setting [6]) and in test [3] (setting [7]) were 15.3 ± 1.11 µM, 5.39 ± 0.77 µM and 15.5 ± 1.2 µM, respectively. Besides, in the test with A549, HepG2, MCF-7, the “anti-proliferative activity compared with lupeol” value is “more potent than that of lupeol”.

In the case of `C=C(C)[C@@H]1CC[C@]2(C)CC[C@]3(C)C(CCC4[C@@]5(C)CC[C@H](OC(=O)N6CCCC6)C(C)(C)C5CC[C@]43C)C12` (stereo partly drawn) [Compound 3d, Lupeol-3-(pyrrolidine-1-carboxylate)], the IC50 stood at 12.4 ± 1.55 µM in test [1] (setting [5]), 17.7 ± 1.35 µM in test [2] (setting [6]) and 11.3 ± 1.14 µM in test [3] (setting [7]).

Consider `C=C(C)[C@@H]1CC[C@]2(C)CC[C@]3(C)C(CCC4[C@@]5(C)CC[C@H](OC(=O)N6CCCCC6)C(C)(C)C5CC[C@]43C)C12` (stereo partly drawn) [Compound 3e, Lupeol-3-(piperidine-1-carboxylate)], for which the IC50 in test [1] (setting [5]) is 14 ± 1.58 µM; in test [2] (setting [6]) it was 6.91 ± 1.6 µM; with A549, HepG2, MCF-7, less than 20 µM; in test [3] (setting [7]) it was 13.2 ± 1.56 µM. Also, the “anti-proliferative activity compared with lupeol” value in the test on A549, HepG2, MCF-7 is given as “more potent than that of lupeol”.

`C=C(C)[C@@H]1CC[C@]2(C)CC[C@]3(C)C(CCC4[C@@]5(C)CC[C@H](OC(=O)N6CCOCC6)C(C)(C)C5CC[C@]43C)C12` (stereo partly drawn) [Compound 3f, Lupeol-3-(morpholine-1-carboxylate)]: the IC50 was found to be 11.3 ± 1.21 µM in test [1] (setting [5]), 10.8 ± 1.52 µM in test [2] (setting [6]) and 6.76 ± 0.96 µM in test [3] (setting [7]).

Regarding `C=C(C)[C@@H]1CC[C@]2(C)CC[C@]3(C)C(CCC4[C@@]5(C)CC[C@H](OC(=O)N6CCSCC6)C(C)(C)C5CC[C@]43C)C12` (stereo partly drawn) [Compound 3g, Lupeol-3-(thiomorpholine-1-carboxylate)], the concentration for half-maximal inhibition (IC50) was 7.77 ± 1.09 µM in test [1] (setting [5]), 10.1 ± 1.78 µM in test [2] (setting [6]) and 8.19 ± 1.02 µM in test [3] (setting [7]).

`C=C(C)[C@@H]1CC[C@]2(C)CC[C@]3(C)C(CCC4[C@@]5(C)CC[C@H](OC(=O)N6CCNCC6)C(C)(C)C5CC[C@]43C)C12` (stereo partly drawn) [Compound 3h, Lupeol-3-(piperazine-1-carboxylate)]: the IC50 is 9.78 ± 1.2 µM in test [1] (setting [5]); 11.2 ± 1.45 µM in test [2] (setting [6]); less than 20 µM in the test with A549, HepG2, MCF-7; 12 ± 1.47 µM in test [3] (setting [7]).

Turning to `C=C(C)[C@@H]1CC[C@]2(C)CC[C@]3(C)C(CCC4[C@@]5(C)CC[C@H](OC(=O)N6CCN(C)CC6)C(C)(C)C5CC[C@]43C)C12` (stereo partly drawn) [Compound 3i, Lupeol-3-((4-methylpiperazine)-1-carboxylate)], the 50% inhibitory concentration (IC50) in test [1] (setting [5]) was 8.2 ± 1.46 µM; in test [2] (setting [6]) it was 9.43 ± 1.21 µM; in test [3] (setting [7]) it was 5.74 ± 0.83 µM.

Consider `C=C(C)C1CCC2(C)CCC3(C)C(CCC4C5(C)CCC(OC(=O)N6CCN(c7ccncc7)CC6)C(C)(C)C5CCC43C)C12` (stereo not drawn) [Compound 3k, Lupeol-3-((4-(pyridin-4-yl)piperazine)-1-carboxylate)], for which the IC50 is 19.9 ± 1.82 µM in test [1] (setting [5]); 14 ± 1.65 µM in test [2] (setting [6]); less than 20 µM in the test on A549, HepG2, MCF-7; 12.1 ± 1.35 µM in test [3] (setting [7]). In addition, the “anti-proliferative activity compared with lupeol” value in the test on A549, HepG2, MCF-7 is on record as “more potent than that of lupeol”.

Take `C=C(C)[C@@H]1CC[C@]2(C)CC[C@]3(C)[C@H](CC[C@@H]4[C@@]5(C)CC[C@H](O)C(C)(C)[C@@H]5CC[C@]43C)[C@@H]12` [Lupeol]: the IC50 was 62 ± 1.79 µM in test [1] (setting [5]), 43.6 ± 1.37 µM in test [2] (setting [6]) and 35.9 ± 1.58 µM in test [3] (setting [7]).
